# Data published in paper PMC6677754, “In silico design and optimization of selective membranolytic anticancer peptides” (Scientific Reports, 2019).
# Like-named read-outs stand apart in the source and are kept apart here. Peptide text beside a SMILES is read from it.
# Key:
# [1] = system: noncancer HDMEC primary cells (human dermal microvascular endothelial cells); assay: Cell viability assay (MTT); type: cell-based; details: for EC50: Table S2, noncancer primary cells, MTT, 24 h, mean ± sd, N = 2 independent measurements with six technical replicates each (Figs S6-S8)
# How it was run: (§1)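 Viability by MTT: 10^4 cells/well exposed 24 h to 2-fold peptide dilutions from 100 μM in DMEM, then 1 h with 0.5 mg mL−1 MTT; absorbance at 540 nm relative to peptide-free medium as 100% survival. EC50 from a 3-parameter log-logistic fit.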
# single MCF7 cells = assay: Microfluidics chip single-cell experiment; type: cell-based, human; details: single MCF7 cell in microfluidic chip, peptide 50 µM
# Description: The AmphiArc2 peptide, the shortest peptide of the low micromolar active peptides, has a high hydrophobic moment (µH = 0.87) and a 180° arc of hydrophobic residues in an idealized helical structure (Fig. 1a). As determined by circular dichroism (CD) spectroscopy, the AmphiArc2 peptide is unstructured in pure water but adopts an alpha-helical structure in a hydrophobic environment (in 50% v/v water:2,2-trifluoroethanol, TFE) (Fig. 1b). […] To further investigate its membranolytic action, we observed the activity of AmphiArc2 on single MCF7 cells entrapped in a microfluidic chip.
# The resultant sigmoidal curves were analyzed with the drc22 R package using a log-logistic model with 3 fixed parameters to obtain the HC50 values.
# Microfluidics chip experiments
# Single cell ACP action was observed on MCF7 cells entrapped in a microfluidic chip following the previously described methodology23. For visualization, cells were stained with calcein-AM at a 1 µM concentration. The calcein-AM penetrates into the cytosol of the cells and it is converted there by intracellular esterases to a fluorescent form that remains encapsulated in the cytosol. […]
# in a microfuidic chip chamber after exposure to the AmphiArc2 peptide at a concentration of 50 µM. […] The loss of the cytosolic fluorescence corresponds to a permeabilization of the cell membrane. […]
# [2] = system: A549 lung adenocarcinoma cell line; assay: Cell viability assay (MTT); type: cell-based, human; details: MTT
# How it was run: as §1
# [3] = system: MCF7 breast adenocarcinoma cell line; assay: Cell viability assay (MTT); type: cell-based, human
# How it was run: as §1
compound,measurement,setting,value
CC[C@H](C)[C@H](NC(=O)[C@H](CCCNC(=N)N)NC(=O)[C@H](Cc1c[nH]c2ccccc12)NC(=O)[C@@H](NC(=O)[C@H](CCCCN)NC(=O)[C@H](CCCCN)NC(=O)[C@@H](NC(=O)[C@@H](NC(=O)[C@@H](NC(=O)[C@H](CCCCN)NC(=O)[C@H](Cc1ccccc1)NC(=O)[C@H](CCCCN)NC(=O)[C@H](CCCCN)NC(=O)[C@H](Cc1ccccc1)NC(=O)[C@@H](NC(=O)[C@@H](N)CCCCN)[C@@H](C)CC)[C@@H](C)O)[C@@H](C)CC)[C@@H](C)CC)C(C)C)C(=O)N[C@@H](Cc1ccccc1)C(=O)NCC(=O)N[C@@H](CCCNC(=N)N)C(=O)N[C@@H](Cc1ccccc1)C(N)=O [AmphiArc2] (H-KIFKKFKTIIKKVWRIFGRF-NH2),EC50 value against the noncancer HDMEC primary cell line (in words),"[1]; Fig. 1d, compared with the EC50 against cancer cell lines, N = 3",same low-micromolar range
same,EC50,[1],3.3 ± 0.2 µM
same,"morphological changes in the cell membrane and leakage of the cytosolic components, time after initial contact with the peptide","single MCF7 cells; calcein-AM and anti-EpCAM stained, as early as",30 seconds
same,"time after which the encapsulated dye had leaked out, membrane deformations and blebbing",single MCF7 cells; calcein-AM stained,95 s
same,EC50,"[2]; 10^4 cells per well, 24 h with peptide, 2-fold dilution series from 100 µM in DMEM, absorbance 540 nm, mean ± std, N = 3, read-out: A549 EC50/µM",9.3 ± 1.5 µM
same,EC50,"[3]; 10^4 cells per well, 24 h with peptide, 2-fold dilution series from 100 µM in DMEM, absorbance 540 nm, mean ± std, N = 3",5.7 ± 0.7 µM
CC[C@H](C)[C@H](NC(=O)[C@H](CCCCN)NC(=O)[C@H](CCCCN)NC(=O)[C@@H](NC(=O)[C@@H](NC(=O)[C@@H](N)Cc1c[nH]cn1)[C@@H](C)CC)[C@@H](C)CC)C(=O)N[C@@H](CCCNC(=N)N)C(=O)N[C@H](C(=O)N[C@@H](Cc1c[nH]c2ccccc12)C(=O)N[C@@H](Cc1ccc(O)cc1)C(=O)N[C@@H](CCCNC(=N)N)C(=O)N[C@@H](CCCCN)C(=O)N[C@@H](C)C(=O)N[C@@H](Cc1c[nH]c2ccccc12)C(=O)N[C@@H](Cc1c[nH]cn1)C(=O)N[C@H](C(=O)N[C@@H](CC(C)C)C(=O)NCC(=O)N[C@@H](CCCCN)C(=O)N[C@H](C(N)=O)C(C)C)C(C)C)[C@@H](C)O [Off2] (H-HIIKKIRTWYRKAWHVLGKV-NH2),EC50,[1],32 ± 3 µM
same,EC50,"[2]; Table S2, 24 h, mean ± sd, N = 2 independent measurements with six technical replicates each (Figs S6-S8), read-out: A549 EC50 /µM",17 ± 0.6 µM
same,EC50,"[3]; Table S2, 24 h, mean ± sd, N = 2 independent measurements with six technical replicates each (Figs S6-S8)",10 ± 2 µM
